In article PMC3773436 (Evidence-based Complementary and Alternative Medicine : eCAM, 2013):
“Also recorded” adds a separate entry of the source. Read-outs that look alike come from different tables or passages of the source.

Assays:
Porcine kidney DPP-IV [1] = molecular target: T1, Porcine kidney DPP-IV (Sus scrofa, UniProt P22411); experiment: DPP-IV Glo Protease Assay (luminescence), DPP-IV inhibition; assay type: biochemical; settings: for DPP-IV inhibitory activity (in words): tested at 0.5, 5, 20 and 40 μg/mL, data not shown
T1 construct: purchased Sigma-Aldrich; host or cells: porcine kidney (tissue-derived, as named)
T1 sequence (P22411 whole entry): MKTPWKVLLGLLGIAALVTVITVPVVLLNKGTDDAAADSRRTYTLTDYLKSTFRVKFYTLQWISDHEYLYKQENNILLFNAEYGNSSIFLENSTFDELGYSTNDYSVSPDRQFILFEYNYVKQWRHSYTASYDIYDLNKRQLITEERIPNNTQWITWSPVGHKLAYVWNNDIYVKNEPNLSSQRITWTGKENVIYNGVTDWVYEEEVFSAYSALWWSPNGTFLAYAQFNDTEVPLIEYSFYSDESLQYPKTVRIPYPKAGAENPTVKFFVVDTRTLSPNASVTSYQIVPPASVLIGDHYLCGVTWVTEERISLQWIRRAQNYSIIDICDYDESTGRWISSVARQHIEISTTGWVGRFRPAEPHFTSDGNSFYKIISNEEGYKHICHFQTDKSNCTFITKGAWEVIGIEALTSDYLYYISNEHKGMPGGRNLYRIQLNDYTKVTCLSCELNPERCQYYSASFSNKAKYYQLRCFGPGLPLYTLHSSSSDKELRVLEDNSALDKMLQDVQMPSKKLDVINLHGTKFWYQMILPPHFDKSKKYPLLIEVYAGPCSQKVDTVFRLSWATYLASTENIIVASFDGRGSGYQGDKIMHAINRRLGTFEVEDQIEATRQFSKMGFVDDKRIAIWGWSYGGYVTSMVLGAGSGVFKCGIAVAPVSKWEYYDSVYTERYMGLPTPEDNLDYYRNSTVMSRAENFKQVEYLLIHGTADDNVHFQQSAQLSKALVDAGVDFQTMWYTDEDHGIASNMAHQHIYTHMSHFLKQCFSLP
Text: All solvents used for phenolic extraction were HPLC-grade and were purchased from Fisher Scientific (Pittsburg, PA). Amberlite XAD-7 was purchased from Sigma-Aldrich (St. Louis, MO). Sephadex LH-20 was purchased from GE Life Sciences (Buckinghamshire, UK). […] DPP-IV Glo^TM Protease Assay kits were purchased from Promega (Madison, WI). […] All other reagents were of analytical grade.
Measurement of the activity and potential inhibition of DPP-IV, a type II membrane glycoprotein, was done using the DPP-IV Glo^TM Protease Assay following the manufacture's protocol (Promega, Madison, WI). Briefly, 50 μL of DPP-IV Glo^TM reagent was added to a white-walled 96-well plate containing 50 μL of blank, positive control, or treatment. The blank contained the vehicle only while positive control contained the vehicle and purified DPP-IV enzyme (at a final concentration of 1 ng/mL). […] The content of the wells was gently mixed using an Ultra Microplate Reader (Biotek Instruments, Winooski, VT) at medium intensity for 4 s. DPP-IV cleavage of the provided Gly-Pro-amino methyl coumarin (AMC) substrate generated a luminescent signal by luciferase reaction, with the amount of DPP-IV enzyme available to bind Gly-Pro-AMC proportional to relative light units (RLU) produced. This signal in RLU was measured after 30 min in the Ultra Microplate Reader and then compared to the blank. […] IC50 values were calculated based on the molecular mass of each compound or C3G as the equivalent for ANC-enriched fractions.
Data were expressed as means of independent duplicates with at least three replicates. […] Statistical analysis was conducted using the proc GLM procedures of SAS version 9.3 (SAS Inst. Inc., Cary, NC, 2009). Group mean comparisons were conducted using Duncan means and were considered to be significant at P < 0.05 based on the least significant differences (LSD) from one-way analysis of variance (ANOVA) with alpha = 0.05. Correlations were made using Pearson's correlation values with P < 0.05.

Porcine kidney DPP-IV [2] = molecular target: T1, Porcine kidney DPP-IV; experiment: Inhibitory kinetics study, Lineweaver-Burk plot, Gly-Pro-AMC substrate; assay type: biochemical; settings: for Ki: Gly-Pro-AMC 0–60 μM, read-out: K i (enzyme-inhibition constant, experimental)
Experimental: Each concentration was evaluated in the presence of various concentrations of Gly-Pro-AMC (0–60 μM). DPP-IV activity was measured using the DPP-IV Glo Protease Assay as mentioned above. The inhibition pattern was evaluated utilizing the Lineweaver-Burk plot. Enzyme-inhibition constant K i was determined by plotting the reciprocal of the initial luminescence versus the reciprocal of the initial substrate concentration.
Initial rates of the reaction were measured, and the results are expressed as a Lineweaver-Burk plot. Data are expressed as the mean of four independent experiments.

[3] = pure compounds, concentration based on molecular mass, means ± SEM, read-out: IC50, DPP-IV inhibition

With O=c1cc(-c2ccc(O)cc2)oc2cc(O)cc(O)c12 [Apigenin, apigenin] the IC50 (Porcine kidney DPP-IV [1]; [3]) was 140 ± 20 nM, the Inhibition manner (Porcine kidney DPP-IV [2]) was “noncompetitively; also recorded: noncompetitive” and the Ki (Porcine kidney DPP-IV [2]) was 7900 ± 1400 nM.

O=C(O)/C=C/c1ccc(O)c(O)c1 [Caffeic acid, caffeic acid] showed an IC50 (Porcine kidney DPP-IV [1]; [3]) of 3370 ± 140 nM.

Oc1cc(O)c2cc(O)c(-c3ccc(O)c(O)c3)[o+]c2c1 [Cyanidin, cyanidin] was tested, and the IC50 (Porcine kidney DPP-IV [1]; [3]) was 1410 ± 250 nM.

OC[C@H]1O[C@@H](Oc2cc3c(O)cc(O)cc3[o+]c2-c2ccc(O)c(O)c2)[C@H](O)[C@@H](O)[C@@H]1O [Cyanidin-3-glucoside, cyanidin-3-glucoside] gave an IC50 (Porcine kidney DPP-IV [1]; [3]) of 420 ± 90 nM.

In the case of O=C(O[C@@H]1Cc2c(O)cc(O)cc2O[C@@H]1c1cc(O)c(O)c(O)c1)c1cc(O)c(O)c(O)c1 [EGCG, epigallocatechin gallate], the IC50 (Porcine kidney DPP-IV [1]; [3]) is reported as 10200 ± 750 nM.

In the case of C[C@@H]1O[C@@H](OC[C@H]2O[C@@H](Oc3cc(O)c4c(c3)O[C@H](c3ccc(O)c(O)c3)CC4=O)[C@H](O)[C@@H](O)[C@@H]2O)[C@H](O)[C@H](O)[C@H]1O [Eriocitrin, eriocitrin], the IC50 (Porcine kidney DPP-IV [1]; [3]) is reported as 10360 ± 90 nM.

O=c1cc(-c2ccccc2)oc2ccccc12 [Flavone, flavone] was tested, and the IC50 (Porcine kidney DPP-IV [1]; [3]) was 170 ± 10 nM, the Inhibition manner (Porcine kidney DPP-IV [2]) was “competitive” and the Ki (Porcine kidney DPP-IV [2]) was 18600 ± 300 nM.

Work on O=C(O)c1cc(O)c(O)c(O)c1 [Gallic acid, gallic acid] yielded an IC50 (Porcine kidney DPP-IV [1]; [3]) of 4650 ± 990 nM.

For O=c1c(-c2ccc(O)cc2)coc2cc(O)cc(O)c12 [Genistein, genistein], the IC50 (Porcine kidney DPP-IV [1]; [3]) was 480 ± 40 nM.

COc1ccc([C@@H]2CC(=O)c3c(O)cc(O)cc3O2)cc1O [Hesperetin, hesperetin] was tested, and the IC50 (Porcine kidney DPP-IV [1]; [3]) was 280 ± 70 nM.

O=c1c(O)c(-c2ccc(O)cc2)oc2cc(O)cc(O)c12 [Kaempferol, kaempferol] gave an IC50 (Porcine kidney DPP-IV [1]; [3]) of 490 ± 20 nM.

O=c1cc(-c2ccc(O)c(O)c2)oc2cc(O)cc(O)c12 [Luteolin, luteolin] was tested, and the IC50 (Porcine kidney DPP-IV [1]; [3]) was 120 ± 10 nM, the Inhibition manner (Porcine kidney DPP-IV [2]) was “noncompetitively; also recorded: noncompetitive” and the Ki (Porcine kidney DPP-IV [2]) was 4900 ± 200 nM.

COc1cc(-c2[o+]c3cc(O)cc(O)c3cc2O)cc(OC)c1O [Malvidin, malvidin] gave an IC50 (Porcine kidney DPP-IV [1]) of 740 ± 160 nM.

O=C1C[C@@H](c2ccc(O)cc2)Oc2cc(O)cc(O)c21 [Naringenin, naringenin] was tested, and the IC50 (Porcine kidney DPP-IV [1]; [3]) was 240 ± 30 nM.

O=c1c(O)c(-c2ccc(O)c(O)c2)oc2cc(O)cc(O)c12 [Quercetin, quercetin] showed an IC50 (Porcine kidney DPP-IV [1]; [3]) of 2920 ± 680 nM.

With Oc1ccc(/C=C/c2cc(O)cc(O)c2)cc1 [Resveratrol, resveratrol] the IC50 (Porcine kidney DPP-IV [1]; [3]) was 0.6 ± 0.4 nM, the Inhibition manner (Porcine kidney DPP-IV [2]) was “competitive” and the Ki (Porcine kidney DPP-IV [2]) was 200 ± 10 nM.

For O.Oc1cc(O)c2c(c1)O[C@H](c1ccc(O)c(O)c1)[C@@H](O)C2 [catechin], the “DPP-IV inhibitory activity (in words)” value (Porcine kidney DPP-IV [1]) was “did not have DPP-IV inhibitory activity”.

In the case of O=C(/C=C/c1ccc(O)c(O)c1)O[C@@H]1C[C@](O)(C(=O)O)C[C@@H](O)[C@H]1O [chlorogenic acid], the “DPP-IV inhibitory activity (in words)” value (Porcine kidney DPP-IV [1]) is reported as “did not have DPP-IV inhibitory activity”.

With Oc1cc(O)c2c(c1)O[C@H](c1ccc(O)c(O)c1)[C@H](O)C2 [epicatechin] the “DPP-IV inhibitory activity (in words)” value (Porcine kidney DPP-IV [1]) was “did not have DPP-IV inhibitory activity”.

With O=c1c(-c2ccc(O)cc2)coc2cc(O[C@@H]3O[C@H](CO)[C@@H](O)[C@H](O)[C@H]3O)cc(O)c12 [genistin] the “DPP-IV inhibitory activity (in words)” value (Porcine kidney DPP-IV [1]) was “did not have DPP-IV inhibitory activity”.

In the case of COc1ccc([C@@H]2CC(=O)c3c(O)cc(O[C@@H]4O[C@H](CO[C@@H]5O[C@@H](C)[C@H](O)[C@@H](O)[C@H]5O)[C@@H](O)[C@H](O)[C@H]4O)cc3O2)cc1O [hesperidin], the “DPP-IV inhibitory activity (in words)” value (Porcine kidney DPP-IV [1]) is reported as “did not have DPP-IV inhibitory activity; also recorded: no DPP-IV inhibitory effect”.

With CC1(C)O[C@H]2CC(=O)OC[C@]23[C@H]2CC[C@@]4(C)[C@H](c5ccoc5)OC(=O)[C@H]5O[C@]54[C@]2(C)C(=O)C[C@@H]13 [limonin] the “DPP-IV inhibitory activity (in words)” value (Porcine kidney DPP-IV [1]) was “did not have DPP-IV inhibitory activity”.

For C[C@@H]1O[C@@H](O[C@H]2[C@H](Oc3cc(O)c4c(c3)O[C@H](c3ccc(O)cc3)CC4=O)O[C@H](CO)[C@@H](O)[C@@H]2O)[C@H](O)[C@H](O)[C@H]1O [naringin], the “DPP-IV inhibitory activity (in words)” value (Porcine kidney DPP-IV [1]) was “did not have DPP-IV inhibitory activity; also recorded: no DPP-IV inhibitory effect”.

In the case of C[C@@H]1O[C@@H](OC[C@H]2O[C@@H](Oc3cc(O)c4c(c3)O[C@H](c3ccc(O)cc3)CC4=O)[C@H](O)[C@@H](O)[C@@H]2O)[C@H](O)[C@H](O)[C@H]1O [narirutin], the “DPP-IV inhibitory activity (in words)” value (Porcine kidney DPP-IV [1]) is reported as “did not have DPP-IV inhibitory activity; also recorded: no DPP-IV inhibitory effect”.

With COc1ccc([C@@H]2CC(=O)c3c(O)cc(O[C@@H]4O[C@H](CO)[C@@H](O)[C@H](O)[C@H]4O[C@@H]4O[C@@H](C)[C@H](O)[C@@H](O)[C@H]4O)cc3O2)cc1O [neohesperidin] the “DPP-IV inhibitory activity (in words)” value (Porcine kidney DPP-IV [1]) was “did not have DPP-IV inhibitory activity; also recorded: no DPP-IV inhibitory effect”.

For O=C(O)c1ccc(O)c(O)c1 [protocatechuic acid], the “DPP-IV inhibitory activity (in words)” value (Porcine kidney DPP-IV [1]) was “did not have DPP-IV inhibitory activity”.

With C[C@@H]1O[C@@H](OC[C@H]2O[C@@H](Oc3c(-c4ccc(O)c(O)c4)oc4cc(O)cc(O)c4c3=O)[C@H](O)[C@@H](O)[C@@H]2O)[C@H](O)[C@H](O)[C@H]1O [rutin, rutin hydrate] the “DPP-IV inhibitory activity (in words)” value (Porcine kidney DPP-IV [1]) was “did not have DPP-IV inhibitory activity; also recorded: no DPP-IV inhibitory effect”.
